According to patent publication US7371766B2, “Curcumin analogs with anti-tumor and anti-angiogenic properties” (Emory University, priority 1999, dated 2008):

Legend:
[1] = tested on: Sixty human tumor cell lines; settings: read-out: Median Growth Inhibitory Concentration (GI50), Mean; Mean over the NCI cell lines; 48 hours
RPMI-7951 human melanoma = experiment: Neutral Red Assay, cell viability, RPMI-7951; settings: RPMI-7951; for Neutral Red Uptake, %: 72 hours
CCRF-CEM = experiment: cells; settings: Homo sapiens, 48 h
MOLT-4 = experiment: cells; settings: Homo sapiens, MOLT-4, 48 h
SR = experiment: cells; settings: Homo sapiens, 48 h
A549 = experiment: cells; settings: Homo sapiens, A549, 48 h
HOP-62 = experiment: cells; settings: Homo sapiens, HOP-62, 48 h
NCI-H23 = experiment: cells; settings: Homo sapiens, NCI-H23, 48 h
NCI-H522 = experiment: cells; settings: Homo sapiens, NCI-H522, 48 h
HCC-2998 = experiment: cells; settings: Homo sapiens, HCC 2998, 48 h
HCT-116 = experiment: cells; settings: Homo sapiens, HCT-116, 48 h
HCT-15 = experiment: cells; settings: Homo sapiens, HCT-15, 48 h
HT29 = experiment: cells; settings: Homo sapiens, HT-29, 48 h
SF-295 = experiment: cells; settings: Homo sapiens, SF-295, 48 h
SNB-19 = experiment: cells; settings: Homo sapiens, SNB-19, 48 h
SNB-75 = experiment: cells; settings: Homo sapiens, SNB-75, 48 h
MALME-3M = experiment: cells; settings: Homo sapiens, 48 h
SK-MEL-2 = experiment: cells; settings: Homo sapiens, SK-MEL-2, 48 h
UACC-257 = experiment: cells; settings: Homo sapiens, UACC-257, 48 h
OVCAR-3 = experiment: cells; settings: Homo sapiens, OVCAR-3, 48 h
OVCAR-5 = experiment: cells; settings: Homo sapiens, OVCAR-5, 48 h
OVCAR-8 = experiment: cells; settings: Homo sapiens, OVCAR-8, 48 h
SK-OV-3 = experiment: cells; settings: Homo sapiens, SK-OV-3, 48 h
TK-10 = experiment: cells; settings: Homo sapiens, TK-10, 48 h
PC-3 = experiment: cells; settings: Homo sapiens, PC-3, 48 h
DU-145 = experiment: cells; settings: Homo sapiens, DU-145, 48 h
MDA-MB-435 = experiment: cells; settings: Homo sapiens, MDA-MB-435, 48 h
MDA-N = experiment: cells; settings: Homo sapiens, 48 h
BT-549 = experiment: cells; settings: Homo sapiens, BT-549, 48 h
[2] = read-out: Median Growth Inhibitory Concentration (GI50)
[3] = read-out: Median Lethal Concentration (LC50)

**Q.** How did the GI50 [1] turn out when “3,5-Bis(2-hydroxybenzylidene)-sulfone [EF11]” was run?
**A.** 34.7 µM

**Q.** What about the “Cell Viability” value (RPMI-7951 human melanoma; 20 μM, DMSO = 100) of the same molecule?
**A.** 93%

**Q.** Which GI50 [1] does the source give for N.N.[Cl][Pt][Cl] [Cisplatin, reference compound] here?
**A.** 0.7 µM

**Q.** And the “Neutral Red Uptake, %” value (RPMI-7951 human melanoma; 5 μM)?
**A.** 100 % of control

**Q.** What about the “Neutral Red Uptake, %” value (RPMI-7951 human melanoma; 20 μM) of the same molecule?
**A.** 100 % of control

**Q.** For OC(CCc1ccc(F)cc1F)CCc1ccc(F)cc1F [EF19, 1,5-Bis(2,4-difluorophenyl)-pentan-3-ol], which GI50 (CCRF-CEM; [2]) is on record?
**A.** 18.2 µM

**Q.** What about the CC50 (CCRF-CEM; [3]) of the same molecule?
**A.** 72.3 µM

**Q.** What about the GI50 (MOLT-4; [2]) of the same molecule?
**A.** 2.6 µM

**Q.** And the CC50 (MOLT-4; [3])?
**A.** 75.6 µM

**Q.** And the GI50 (SR; [2])?
**A.** 22.7 µM

**Q.** What about the CC50 (SR; [3]) of the same molecule?
**A.** 82.6 µM

**Q.** And the GI50 (A549; [2])?
**A.** 18 µM

**Q.** What about the CC50 (A549; [3]) of the same molecule?
**A.** 65.8 µM

**Q.** What about the GI50 (HOP-62; [2]) of the same molecule?
**A.** 18 µM

**Q.** And the CC50 (HOP-62; [3])?
**A.** 58.7 µM

**Q.** And the GI50 (NCI-H23; [2])?
**A.** 22.8 µM

**Q.** And the CC50 (NCI-H23; [3])?
**A.** 96.8 µM

**Q.** What about the GI50 (NCI-H522; [2]) of the same molecule?
**A.** 18.2 µM

**Q.** And the CC50 (NCI-H522; [3])?
**A.** 75.4 µM

**Q.** And the GI50 (HCC-2998; [2])?
**A.** 17.7 µM

**Q.** And the CC50 (HCC-2998; [3])?
**A.** 56.1 µM

**Q.** And the GI50 (HCT-116; [2])?
**A.** 17.8 µM

**Q.** What about the CC50 (HCT-116; [3]) of the same molecule?
**A.** 56.3 µM

**Q.** What about the GI50 (HCT-15; [2]) of the same molecule?
**A.** 24.8 µM

**Q.** And the CC50 (HCT-15; [3])?
**A.** > 100 µM

**Q.** And the GI50 (HT29; [2])?
**A.** 17.9 µM

**Q.** What about the CC50 (HT29; [3]) of the same molecule?
**A.** 62.6 µM

**Q.** And the GI50 (SF-295; [2])?
**A.** 18.7 µM

**Q.** What about the CC50 (SF-295; [3]) of the same molecule?
**A.** 69.7 µM

**Q.** And the GI50 (SNB-19; [2])?
**A.** 16.1 µM

**Q.** What about the CC50 (SNB-19; [3]) of the same molecule?
**A.** 57.3 µM

**Q.** What about the GI50 (SNB-75; [2]) of the same molecule?
**A.** 19 µM

**Q.** What about the CC50 (SNB-75; [3]) of the same molecule?
**A.** 57.5 µM

**Q.** What about the GI50 (MALME-3M; [2]) of the same molecule?
**A.** 18 µM

**Q.** And the CC50 (MALME-3M; [3])?
**A.** 59.6 µM

**Q.** What about the GI50 (SK-MEL-2; [2]) of the same molecule?
**A.** 18.4 µM

**Q.** And the CC50 (SK-MEL-2; [3])?
**A.** 57 µM

**Q.** What about the GI50 (UACC-257; [2]) of the same molecule?
**A.** 17.9 µM

**Q.** And the CC50 (UACC-257; [3])?
**A.** 56.3 µM

**Q.** What about the GI50 (OVCAR-3; [2]) of the same molecule?
**A.** 17.9 µM

**Q.** And the CC50 (OVCAR-3; [3])?
**A.** 59.3 µM

**Q.** What about the GI50 (OVCAR-5; [2]) of the same molecule?
**A.** 18.5 µM

**Q.** What about the CC50 (OVCAR-5; [3]) of the same molecule?
**A.** 61.1 µM

**Q.** What about the GI50 (OVCAR-8; [2]) of the same molecule?
**A.** 18 µM

**Q.** And the CC50 (OVCAR-8; [3])?
**A.** 67.3 µM

**Q.** What about the GI50 (SK-OV-3; [2]) of the same molecule?
**A.** 18.5 µM

**Q.** And the CC50 (SK-OV-3; [3])?
**A.** 65.9 µM

**Q.** And the GI50 (TK-10; [2])?
**A.** 17.4 µM

**Q.** What about the CC50 (TK-10; [3]) of the same molecule?
**A.** 56.3 µM

**Q.** What about the GI50 (PC-3; [2]) of the same molecule?
**A.** 17.5 µM

**Q.** What about the CC50 (PC-3; [3]) of the same molecule?
**A.** 56.7 µM

**Q.** And the GI50 (DU-145; [2])?
**A.** 18.1 µM

**Q.** And the CC50 (DU-145; [3])?
**A.** 56.6 µM

**Q.** What about the GI50 (MDA-MB-435; [2]) of the same molecule?
**A.** 17.1 µM

**Q.** And the CC50 (MDA-MB-435; [3])?
**A.** 55.6 µM

**Q.** And the GI50 (MDA-N; [2])?
**A.** 16.9 µM

**Q.** And the CC50 (MDA-N; [3])?
**A.** 55.2 µM

**Q.** And the GI50 (BT-549; [2])?
**A.** 17.9 µM

**Q.** What about the CC50 (BT-549; [3]) of the same molecule?
**A.** 64.7 µM
